Assay results taken from patent publication US20160038448A1, “THE INHIBITION OF THE TOXIC EFFECTS OF ISLET AMYLOID FORMATION BY FLURBIPROFEN AND FLURBIPROFEN DERIVATIVES” (The Research Foundation for the State University of New York, priority 2013, published 2016).
Entries after “also recorded” stand apart in the source; their conditions may differ. Each block holds one compound with its values, some of them ahead of it.

Tests used:
human IAPP = molecular target: T1, human IAPP (Homo sapiens, UniProt P10997); experiment: Fluorescence detected thioflavin-T assay of the time course of amyloid formation; assay type: biochemical; conditions: for effect on islet amyloid formation (thioflavin-T time course): compound 20 parts, human IAPP 1 part, example in present tense; for inhibition of amyloid formation by human IAPP (amylin): 20 to 1 ratio of NSAID to human IAPP, pH 7.4, 25° C.
T1 construct: Mature, fully processed, Amylin is 37 residues in length, contains a disulfide bond between residues 2 and 7; made in house; host or cells: chemical solid-phase peptide synthesis (Fmoc), no expression host
T1 sequence (P10997 34-70 limits assumed): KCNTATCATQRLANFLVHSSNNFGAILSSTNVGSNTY
Procedure: Peptides were first dissolved in 100% hexafluoroisopropanol (HFIP) at a concentration 1.6 mM and then filtered to remove any preformed amyloid aggregates. For thioflavin-T fluorescence assays, aliquots were lyophilized and redissolved in pH 7.4, 20 mM Tris-HCl buffer at the desired concentration. Aspirin and Ketoprofen were prepared in 100% dimethyl sulfoxide (DMSO).
Solutions were prepared by adding pH 7.4, 20 mM Tris buffer and thioflavin-T to lyophilized dry peptides for a final peptide concentration of […]. For the studies of Aspirin and Ketoprofen, 0.25% DMSO was present in the solution. Measurements were made at 25° C. using a Beckman Coulter DTX880 plate reader without stirring. An excitation filter of 430 nm and an emission filter of 485 nm were used. To test disaggregate activity of Aspirin, peptide was first incubated in low-binding 96-wells plate and monitored by plate reader to ensure the formation of amyloid fibrils.
A mixture of flurbiprofen (1-20 parts) and human IAPP (1 part) was monitored by fluorescence detected thioflavin-T assays. The assays monitored the time course of amyloid formation (amount vs time) in the presence and absence of flurbiprofen.
A mixture of OH-flurbiprofen and human IAPP were monitored by fluorescence detected thioflavin-T assays. Three different concentrations (1:1 ratio, 1:10 ratio and 1:20 ratio of IAPP to OH-flurbiprofen) were tested against human IAPP without any added OH-flurbiprofen. The assays monitored the time course of amyloid formation (amount vs time) in the presence and absence of a flurbiprofen derivative.
Three different mixtures of NSAIDs (20 parts) and human IAPP (1 parts) were compared to each other and human IAPP alone by fluorescence detected thioflavin-T assays. The assays monitored the time course of amyloid formation (amount vs time) in the presence and absence of aspirin, naproxen and flurbiprofen.

rat INS-1 beta-cells = experiment: AlamarBlue cell viability of beta-cells given aliquots of the IAPP amyloid time course; assay type: cell-based
Procedure: FIG. 5. […] (A) A thioflavin-T monitored time course of amyloid formation in the presence and absence of flurbiprofen. […] 20 mM Tris-HCl buffer with 0.25% DMSO was used as the control.
The presence of toxic intermediates is reduced when amyloid formation is accelerated by use of flurbiprofen or a flurbiprofen derivative. A thioflavin-T monitored time course of amyloid formation by human IAPP was conducted in the presence and absence of flurbiprofen. Aliquots were removed at various time points and applied to rat INS-1 beta-cells; at thirty minutes, at 12 hours, at 48 hours. Cell viability as judged by AlamarBlue assays. 20 mM Tris-HCl buffer with 0.25% DMSO was used as the control.

[1] = test system: 3XL-IAPP mutant (F15L, F23L, Y37L human IAPP); experiment: Thioflavin-T assay of mutant human IAPP amyloid formation (3XL); assay type: biochemical; conditions: WT human IAPP and mutant IAPP compared
Text: A mixture of flurbiprofen (20 parts) and human IAPP (1 part) was monitored by fluorescence detected thioflavin-T assays. The assays monitored the time course of amyloid formation (amount vs time) in the presence and absence of flurbiprofen. The effect of flurbiprofen in wild-type (WT) human IAPP, and in two mutants of human IAPP was monitored. In one mutant, all of the aromatic amino acids in human IAPP were replaced by […] human IAPP was examined. A second mutant in which […] human IAPP) was also tested.

human IAPP (amylin) = molecular target: T2, human IAPP (amylin) (Homo sapiens, UniProt P10997); experiment: Transmission electron microscopy of amyloid fibrils; assay type: biochemical
T2 construct: Mature, fully processed, Amylin is 37 residues in length, contains a disulfide bond between residues 2 and 7; made in house; host or cells: chemical solid-phase peptide synthesis (Fmoc), no expression host
T2 sequence (P10997 34-70 limits assumed): T1 sequence (P10997 34-70 limits assumed)
Procedure: TEM was performed at the Life Science Microscopy Center at Stony Brook University. Aliquots were removed from the same solutions that were used for the fluorescence measurements. 5 μL of peptide solution was placed on carbon-coated Formvar 300 mesh copper grid for one minute and then negatively stained with saturated uranyl acetate for another one minute.

[2] = molecular target: T3, pre-formed human amylin amyloid fibrils (Homo sapiens, UniProt P10997); experiment: Disaggregation of pre-formed amylin amyloid fibrils (thioflavin-T and TEM); assay type: biochemical; conditions: 20-fold excess added after amyloid formation was complete; up to 48 hours
T3 construct: Mature, fully processed, Amylin is 37 residues in length, contains a disulfide bond between residues 2 and 7; made in house; host or cells: chemical solid-phase peptide synthesis (Fmoc), no expression host
T3 sequence (P10997 34-70 limits assumed): T1 sequence (P10997 34-70 limits assumed)
Procedure: Solutions were prepared by adding pH 7.4, 20 mM Tris buffer and thioflavin-T to lyophilized dry peptides for a final peptide concentration of 16 M. For the studies of Aspirin and Ketoprofen, 0.25% DMSO was present in the solution. Measurements were made at 25° C. using a Beckman Coulter DTX880 plate reader without stirring. An excitation filter of 430 nm and an emission filter of 485 nm were used.

[3] = Parallel biophysical and cell viability experiments on h-IAPP variants; assay type: cell-based
Procedure: Parallel biophysical and cell viability experiments were conducted using a range of conditions that alter the length of the lag phase. h-IAPP amyloid kinetics are concentration-dependent. Decreasing the peptide concentration leads to an increase in the length of the lag phase, while an increase in human-IAPP concentration leads to a shortening of the lag phase. The length of the lag phase can also be controlled by altering the temperature. Lower temperatures lead to a longer lag phase; the lag phase is 2-fold longer at 15° C. […] A set of rationally designed Ser-20 mutations were used. Ser-20 is located at a critical position in the h-IAPP sequence and modulates its aggregation kinetics. […] Toxicity and kinetics experiments were performed on the Ser-20 mutants. […] An human-IAPP triple mutant, 3×L-IAPP, in which Leu replaced the three aromatic residues (Phe-15, Phe=23 and Tyr-37) was tested. This mutant forms amyloid 9-fold more slowly than wild type human IAPP (Marek at al. 2007). […] The duration of toxicity for all the mutants and for all the conditions with human IAPP wild type correlated with the length of the respective lag phases.

[4] = compound 20 parts, human IAPP 1 part, example in present tense
[5] = IAPP:compound ratios 1:1 to 1:20, pH 7.4, 20 mM Tris, 25° C.
[6] = 20 to 1 ratio of compound to human IAPP

effect on islet amyloid formation (thioflavin-T time course) (human IAPP): accelerates islet amyloid formation
Compound: C[C@H](C(=O)O)c1ccc(-c2ccccc2)cc1 [(S)-2-(Biphenyl-4-yl)propanoic acid, (S)-2-(biphenyl-4-yl)propanoic acid]
presence and toxic effects of intermediates of amyloid formation (rat INS-1 beta-cells; [4]): reduces the presence and toxic effects of intermediates of amyloid formation

effect on human IAPP amyloid formation (thioflavin-T time course) (human IAPP; 20 to 1 ratio of compound to human IAPP, listed as S flurbiprofen): equally effective | effect on human IAPP amyloid formation (thioflavin-T time course) (human IAPP; 20 to 1 ratio of compound to human IAPP, listed as S-flurbiprofen): accelerated islet amyloid formation
Compound: S-Flurbiprofen
effect on human IAPP amyloid formation (thioflavin-T time course) (human IAPP; [5]): accelerates amyloid formation by human IAPP in a dose dependent manner | presence and toxic effects of intermediates of amyloid formation (rat INS-1 beta-cells; human IAPP with compound): reduced the presence and toxic effects of intermediates of amyloid formation | acceleration of amyloid formation and reduction of toxic effects of intermediates, WT human IAPP versus mutant IAPP [1]: about equally

inhibition of amyloid formation by human IAPP (amylin) (human IAPP): do not inhibit amylin amyloid formation
Compound: CC(C(=O)O)c1cccc(C(=O)c2ccccc2)c1 (stereo not shown) [Ketoprofen]
inhibition of amylin amyloid formation judged by TEM (human IAPP (amylin); equimolar to 20-fold excess of Ketoprofen, 42 hours, amylin 16 μM): not an amylin amyloid inhibitor; also recorded: does not inhibit amyloid formation by amylin | disaggregation of pre-formed amylin amyloid fibrils [2]: unable to disassemble pre-formed amylin amyloid

Compound: CC(C(=O)O)c1ccc(-c2ccc(O)cc2)c(F)c1 (stereo not shown) [OH-flurbiprofen, 2-(2-fluoro-4′-hydroxybiphenyl-4-yl) propanoic acid]
effect on human IAPP amyloid formation (thioflavin-T time course) (human IAPP; [6]): highest rate of acceleration of amyloid formation | effect on human IAPP amyloid formation (thioflavin-T time course) (human IAPP; [5]): accelerated islet amyloid formation; also recorded: accelerates amyloid formation by human islet amyloid polypeptide | presence and toxic effects of intermediates of amyloid formation (rat INS-1 beta-cells; human IAPP with compound): reduced the presence and toxic effects of intermediates of amyloid formation in a dose dependent fashion

Compound: CC[C@H](C)[C@H](NC(=O)[C@H](C)NC(=O)CNC(=O)[C@H](Cc1ccccc1)NC(=O)[C@H](CC(N)=O)NC(=O)[C@H](CC(N)=O)NC(=O)CNC(=O)[C@H](CO)NC(=O)[C@H](Cc1c[nH]cn1)NC(=O)[C@@H](NC(=O)[C@H](CC(C)C)NC(=O)[C@H](Cc1ccccc1)NC(=O)[C@H](CC(N)=O)NC(=O)[C@H](C)NC(=O)[C@H](CC(C)C)NC(=O)[C@H](CCCNC(=N)N)NC(=O)[C@H](CCC(N)=O)NC(=O)[C@@H](NC(=O)[C@H](C)NC(=O)[C@@H]1CSSC[C@H](NC(=O)[C@@H](N)CCCCN)C(=O)N[C@@H](CC(N)=O)C(=O)N[C@@H]([C@@H](C)O)C(=O)N[C@@H](C)C(=O)N[C@@H]([C@@H](C)O)C(=O)N1)[C@@H](C)O)C(C)C)C(=O)N[C@@H](CC(C)C)C(=O)N[C@@H](CO)C(=O)N[C@@H](CO)C(=O)N[C@H](C(=O)N[C@@H](CC(N)=O)C(=O)N[C@H](C(=O)NCC(=O)N[C@@H](CO)C(=O)N[C@@H](CC(N)=O)C(=O)N[C@H](C(=O)N[C@@H](Cc1ccc(O)cc1)C(N)=O)[C@@H](C)O)C(C)C)[C@@H](C)O [S20G-IAPP]
onset and duration of toxicity relative to wild type human IAPP [3]: more rapid onset and shorter duration of toxicity

effect on human IAPP amyloid formation (thioflavin-T time course) (human IAPP; [6]): accelerated islet amyloid formation | effect on human IAPP amyloid formation (thioflavin-T time course) (human IAPP; 20 to 1 ratio of compound to human IAPP, listed as R flurbiprofen): equally effective
Compound: C[C@@H](C(=O)O)c1ccc(-c2ccccc2)c(F)c1 [R-flurbiprofen]
presence and toxic effects of intermediates of amyloid formation (rat INS-1 beta-cells; human IAPP with compound): reduced the presence and toxic effects of intermediates of amyloid formation | acceleration of amyloid formation and reduction of toxic effects of intermediates, WT human IAPP versus mutant IAPP [1]: about equally

Compound: CC[C@H](C)[C@H](NC(=O)[C@H](C)NC(=O)CNC(=O)[C@H](Cc1ccccc1)NC(=O)[C@H](CC(N)=O)NC(=O)[C@H](CC(N)=O)NC(=O)[C@H](CCCCN)NC(=O)[C@H](CO)NC(=O)[C@H](Cc1c[nH]cn1)NC(=O)[C@@H](NC(=O)[C@H](CC(C)C)NC(=O)[C@H](Cc1ccccc1)NC(=O)[C@H](CC(N)=O)NC(=O)[C@H](C)NC(=O)[C@H](CC(C)C)NC(=O)[C@H](CCCNC(=N)N)NC(=O)[C@H](CCC(N)=O)NC(=O)[C@@H](NC(=O)[C@H](C)NC(=O)[C@@H]1CSSC[C@H](NC(=O)[C@@H](N)CCCCN)C(=O)N[C@@H](CC(N)=O)C(=O)N[C@@H]([C@@H](C)O)C(=O)N[C@@H](C)C(=O)N[C@@H]([C@@H](C)O)C(=O)N1)[C@@H](C)O)C(C)C)C(=O)N[C@@H](CC(C)C)C(=O)N[C@@H](CO)C(=O)N[C@@H](CO)C(=O)N[C@H](C(=O)N[C@@H](CC(N)=O)C(=O)N[C@H](C(=O)NCC(=O)N[C@@H](CO)C(=O)N[C@@H](CC(N)=O)C(=O)N[C@H](C(=O)N[C@@H](Cc1ccc(O)cc1)C(N)=O)[C@@H](C)O)C(C)C)[C@@H](C)O [S20K-human IAPP]
onset and duration of toxicity relative to wild type human IAPP [3]: increased the duration of toxicity

inhibition of amyloid formation by human IAPP (amylin) (human IAPP): no inhibition of amyloid | amyloid fibrils by TEM in presence of NSAID (human IAPP (amylin); 20-fold excess of NSAID over human IAPP, end of kinetic experiment): no changes in amyloid formation
Compound: COc1ccc2cc([C@H](C)C(=O)O)ccc2c1 [Naproxen]

effect on islet amyloid formation (thioflavin-T time course) (human IAPP): accelerates islet amyloid formation
Compound: O=C(O)Cc1ccc(-c2ccccc2)cc1 [2-(Biphenyl-4-yl)acetic acid, 2-(biphenyl-4-yl)acetic acid]
presence and toxic effects of intermediates of amyloid formation (rat INS-1 beta-cells; [4]): reduces the presence and toxic effects of intermediates of amyloid formation

effect on islet amyloid formation (thioflavin-T time course) (human IAPP): accelerates islet amyloid formation
Compound: O=C(O)Cc1ccc(-c2ccccc2)c(F)c1 [2-(2-Fluorobiphenyl-4-yl)acetic acid, 2-(2-fluorobiphenyl-4-yl)acetic acid]
presence and toxic effects of intermediates of amyloid formation (rat INS-1 beta-cells; [4]): reduces the presence and toxic effects of intermediates of amyloid formation
